The text below walks through data of patent US12679843B2, “Pyrrolopyrimidine amines as complement inhibitors” (BioCryst Pharmaceuticals, Inc., priority 2020, dated 2026).

The test deals with Factor D (Homo sapiens, UniProt P00746). Kind of test: Factor D esterolytic assay (Z-Lys-SBzl thioester substrate, DTNB, 405 nm). Format: biochemical. The following applies: substrate Z-Lys-SBzl 1.29 mM, 100 mM HEPES, 500 mM NaCl, pH 7.5, 10% DMSO, tested a minimum of three times. The method, boiled down: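 Run in pH 7.5 HEPES (100 mM) with 500 mM NaCl and 10% DMSO, with compound preincubated at room temperature or not before adding 1.29 mM Z-Lys-SBzl. Free thiol released by Factor D reacts with DTNB, and rate is followed at 405 nm minus 690 nm over 600 s. IC50 derives from rate-based inhibition, minimum three replicates.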
Chain of Factor D (P00746 26-253): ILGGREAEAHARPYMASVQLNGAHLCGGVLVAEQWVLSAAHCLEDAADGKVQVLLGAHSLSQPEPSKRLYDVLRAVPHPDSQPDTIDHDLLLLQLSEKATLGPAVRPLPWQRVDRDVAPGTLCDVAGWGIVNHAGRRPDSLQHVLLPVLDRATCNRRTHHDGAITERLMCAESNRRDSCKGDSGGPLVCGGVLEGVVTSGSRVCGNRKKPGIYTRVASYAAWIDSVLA
Regarding `Nc1ncnc2c1c1cc(OC(F)(F)F)ccc1n2CC(=O)N1[C@@H]2C[C@@H]2C[C@H]1C(=O)Nc1cccc(Br)n1` [Compound 274g, (1R,3S,5R)-2-(2-(4-amino-6-(trifluoromethoxy)-9H-pyrimido[4,5-b]indol-9-yl)acetyl)-N-(6-bromopyridin-2-yl)-2-azabicyclo[3.1.0]hexane-3-carboxamide], the IC50 (in general, the concentration that inhibits the measured activity by half) is less than 100 nM.

As to `C[C@@]12C[C@@H](C(=O)Nc3cccc(Br)n3)N(C(=O)Cn3c4cc(F)c(Br)cc4c4c(N)ncnc43)[C@@H]1C2` [Compound 390a, (1R,3S,5R)-2-(2-(4-amino-6-bromo-7-fluoro-9H-pyrimido[4,5-b]indol-9-yl)acetyl)-N-(6-bromopyridin-2-yl)-5-methyl-2-azabicyclo[3.1.0]hexane-3-carboxamide], the IC50 was less than 100 nM.

As to `Cc1ccc(Br)nc1NC(=O)[C@@H]1C[C@@]2(C)C[C@H]2N1C(=O)Cn1cnc2c(N)ncnc21` [Compound 113a, (1R,3S,5R)-2-(2-(6-amino-9H-purin-9-yl)acetyl)-N-(6-bromo-3-methylpyridin-2-yl)-5-methyl-2-azabicyclo[3.1.0]hexane-3-carboxamide], the IC50 was 100 to 1000 nM.

Consider `Nc1ncnc2c1c1ccc(Br)cc1n2CC(=O)N1[C@@H]2C[C@@H]2C[C@H]1C(=O)Nc1cccc(Br)n1` [Compound 52f, (1R,3S,5R)-2-(2-(4-amino-7-bromo-9H-pyrimido[4,5-b]indol-9-yl)acetyl)-N-(6-bromopyridin-2-yl)-2-azabicyclo[3.1.0]hexane-3-carboxamide], for which the 50% inhibitory concentration (IC50) was less than 100 nM.

In the case of `Cc1ccc2c3c(N)ncnc3n(CC(=O)N3[C@H](C(=O)Nc4cccc(Br)n4)C[C@@]4(C)C[C@@H]34)c2c1` [Compound 24a, (1R,3S,5R)-2-(2-(4-amino-7-methyl-9H-pyrimido[4,5-b]indol-9-yl)acetyl)-N-(6-bromopyridin-2-yl)-5-methyl-2-azabicyclo[3.1.0]hexane-3-carboxamide], the IC50 was less than 100 nM.

In the case of `Nc1ncnc2c1cnn2CC(=O)N1CCC[C@H]1C(=O)Nc1cccc(Br)n1` [Compound 77b, (S)-1-(2-(4-amino-1H-pyrazolo[3,4-d]pyrimidin-1-yl)acetyl)-N-(6-bromopyridin-2-yl)pyrrolidine-2-carboxamide], the IC50 is greater than 1000 nM.

For `Nc1ncnc2c1c1nc(-c3ccccc3)ccc1n2CC(=O)N1[C@@H]2C[C@@H]2C[C@H]1C(=O)Nc1cccc(Br)n1` [Compound 298c, (1R,3S,5R)-2-(2-(4-amino-6-phenyl-9H-pyrido[2′,3′:4,5]pyrrolo[2,3-d]pyrimidin-9-yl)acetyl)-N-(6-bromopyridin-2-yl)-2-azabicyclo[3.1.0]hexane-3-carboxamide], the IC50 was less than 100 nM.

Turning to `COCc1ccc2c(c1)c1c(N)ncnc1n2CC(=O)N1[C@@H]2C[C@@H]2C[C@H]1C(=O)Nc1cccc(Br)n1` [Compound 339g, (1R,3S,5R)-2-(2-(4-amino-6-(methoxymethyl)-9H-pyrimido[4,5-b]indol-9-yl)acetyl)-N-(6-bromopyridin-2-yl)-2-azabicyclo[3.1.0]hexane-3-carboxamide], the IC50 is less than 100 nM.

In the case of `C[C@@]12C[C@@H](C(=O)Nc3cccc(Br)n3)N(C(=O)Cn3c4ccncc4c4c(N)ncnc43)[C@@H]1C2` [Compound 181a, (1R,3S,5R)-2-(2-(4-amino-9H-pyrido[3′,4′:4,5]pyrrolo[2,3-d]pyrimidin-9-yl)acetyl)-N-(6-bromopyridin-2-yl)-5-methyl-2-azabicyclo[3.1.0]hexane-3-carboxamide], the IC50 was less than 100 nM.

In the case of `Cc1ncc(NC(=O)[C@@H]2C[C@@]3(C)C[C@H]3N2C(=O)Cn2c3ncnc(N)c3c3cc(C(F)(F)F)cc(C)c32)nc1Br` [Compound 364d, (1R,3S,5R)-2-(2-(4-amino-8-methyl-6-(trifluoromethyl)-9H-pyrimido[4,5-b]indol-9-yl)acetyl)-N-(6-bromo-5-methylpyrazin-2-yl)-5-methyl-2-azabicyclo[3.1.0]hexane-3-carboxamide], the IC50 is less than 100 nM.

Consider `Cc1cccc2c3c(N)ncnc3n(CC(=O)N3[C@@H]4C[C@@H]4C[C@H]3C(=O)Nc3cccc(Br)n3)c12` [Compound 30f, (1R,3S,5R)-2-(2-(4-amino-8-methyl-9H-pyrimido[4,5-b]indol-9-yl)acetyl)-N-(6-bromopyridin-2-yl)-2-azabicyclo[3.1.0]hexane-3-carboxamide], for which the IC50 was less than 100 nM.

Take `COC(=O)c1ccc2c3c(N)ncnc3n(CC(=O)N3[C@@H]4C[C@@H]4C[C@H]3C(=O)Nc3cccc(Br)n3)c2c1` [Compound 41f, methyl 4-amino-9-(2-((1R,3S,5R)-3-((6-bromopyridin-2-yl)carbamoyl)-2-azabicyclo[3.1.0]hexan-2-yl)-2-oxoethyl)-9H-pyrimido[4,5-b]indole-7-carboxylate]: the 50% inhibitory concentration (IC50) is less than 100 nM.

As for `Nc1ncnn2c(CC(=O)N3C[C@H](F)C[C@H]3C(=O)NCc3cccc(Cl)c3F)ccc12` [Compound 65a, (2S,4R)-1-(2-(4-aminopyrrolo[2,1-f][1,2,4]triazin-7-yl)acetyl)-N-(3-chloro-2-fluorobenzyl)-4-fluoropyrrolidine-2-carboxamide], the IC50 was less than 100 nM.

As to `Cc1ccc(Br)nc1NC(=O)[C@@H]1C[C@H]2C[C@H]2N1C(=O)Cc1ccc2c(N)ncnn12` [Compound 2d, (1R,3S,5R)-2-(2-(4-aminopyrrolo[2,1-f][1,2,4]triazin-7-yl)acetyl)-N-(6-bromo-3-methylpyridin-2-yl)-2-azabicyclo[3.1.0]hexane-3-carboxamide], the IC50 was greater than 1000 nM.

Take `COc1cccc2c3c(N)ncnc3n(CC(=O)N3[C@H](C(=O)Nc4nc(Br)ccc4C)C[C@@]4(C)C[C@@H]34)c12` [Compound 254a, (1R,3S,5R)-2-(2-(4-amino-8-methoxy-9H-pyrimido[4,5-b]indol-9-yl)acetyl)-N-(6-bromo-3-methylpyridin-2-yl)-5-methyl-2-azabicyclo[3.1.0]hexane-3-carboxamide]: the 50% inhibitory concentration (IC50) is less than 100 nM.

As to `Nc1ncnc2c1c(-c1c[nH]c3ccccc13)cn2CC(=O)N1C[C@H](F)C[C@H]1C(=O)NCc1cccc(Cl)c1F` [Compound 126f, (2S,4R)-1-(2-(4-amino-5-(1H-indol-3-yl)-7H-pyrrolo[2,3-d]pyrimidin-7-yl)acetyl)-N-(3-chloro-2-fluorobenzyl)-4-fluoropyrrolidine-2-carboxamide], the IC50 lay within 100 to 1000 nM.

In the case of `Nc1ncnc2c1c1cc(Br)cc(F)c1n2CC(=O)N1[C@@H]2C[C@@H]2C[C@H]1C(=O)Nc1cccc(Br)n1` [Compound 376g, (1R,3S,5R)-2-(2-(4-amino-6-bromo-8-fluoro-9H-pyrimido[4,5-b]indol-9-yl)acetyl)-N-(6-bromopyridin-2-yl)-2-azabicyclo[3.1.0]hexane-3-carboxamide], the IC50 was less than 100 nM.

As to `NCc1ccc2c(c1)c1c(N)ncnc1n2CC(=O)N1[C@@H]2C[C@@H]2C[C@H]1C(=O)Nc1cccc(Br)n1` [Compound 63d, (1R,3S,5R)-2-(2-(4-amino-6-(aminomethyl)-9H-pyrimido[4,5-b]indol-9-yl)acetyl)-N-(6-bromopyridin-2-yl)-2-azabicyclo[3.1.0]hexane-3-carboxamide], the half-maximal inhibitory concentration (IC50) is less than 100 nM.

Regarding `Cc1cc(-c2cccnc2)cc2c3c(N)ncnc3n(CC(=O)N3[C@@H]4C[C@@H]4C[C@H]3C(=O)Nc3cccc(Br)n3)c12` [Compound 288c, (1R,3S,5R)-2-(2-(4-amino-8-methyl-6-(pyridin-3-yl)-9H-pyrimido[4,5-b]indol-9-yl)acetyl)-N-(6-bromopyridin-2-yl)-2-azabicyclo[3.1.0]hexane-3-carboxamide], the IC50 was less than 100 nM.

For the molecule `Nc1ncnc2c1c1cc(C(F)(F)F)ccc1n2CC(=O)N1[C@@H]2C[C@@H]2C[C@H]1C(=O)Nc1cccc(Cl)n1` [Compound 267c, (1R,3S,5R)-2-(2-(4-amino-6-(trifluoromethyl)-9H-pyrimido[4,5-b]indol-9-yl)acetyl)-N-(6-chloropyridin-2-yl)-2-azabicyclo[3.1.0]hexane-3-carboxamide], the IC50 is less than 100 nM.

`Nc1ncnc2c1c1cc(C(F)(F)F)ccc1n2CC(=O)N1C(=O)OC[C@H]1C(=O)NCc1cccc(Cl)c1F` [Compound 251f, (S)-3-(2-(4-amino-6-(trifluoromethyl)-9H-pyrimido[4,5-b]indol-9-yl)acetyl)-N-(3-chloro-2-fluorobenzyl)-2-oxooxazolidine-4-carboxamide]: the IC50 is 100 to 1000 nM.

On to `C[C@@]12C[C@@H](C(=O)Nc3cccc(Br)n3)N(C(=O)Cn3c4ccc(C(N)=O)cc4c4c(N)ncnc43)[C@@H]1C2` [Compound 203a, 4-amino-9-(2-((1R,3S,5R)-3-((6-bromopyridin-2-yl)carbamoyl)-5-methyl-2-azabicyclo[3.1.0]hexan-2-yl)-2-oxoethyl)-9H-pyrimido[4,5-b]indole-6-carboxamide], for which the IC50 was less than 100 nM.

Turning to `Nc1ncnc2c1cnn2CC(=O)N1CCC[C@H]1C(=O)NCc1cccc(Cl)c1F` [Compound 78a, (S)-1-(2-(4-amino-1H-pyrazolo[3,4-d]pyrimidin-1-yl)acetyl)-N-(3-chloro-2-fluorobenzyl)pyrrolidine-2-carboxamide], the IC50 lay in the range of 100 to 1000 nM.

For `Cc1cc(C(F)(F)F)cc2c3c(N)ncnc3n(CC(=O)N3[C@@H]4C[C@@H]4C[C@H]3C(=O)Nc3cccc(Br)n3)c12` [Compound 194a, (1R,3S,5R)-2-(2-(4-amino-8-methyl-6-(trifluoromethyl)-9H-pyrimido[4,5-b]indol-9-yl)acetyl)-N-(6-bromopyridin-2-yl)-2-azabicyclo[3.1.0]hexane-3-carboxamide], the IC50 was less than 100 nM.

For `Nc1ncnc2c1ncn2CC(=O)N1CC2(CC2)C[C@H]1C(=O)NCc1cccc(Cl)c1F` [Compound 120c, (S)-5-(2-(6-amino-9H-purin-9-yl)acetyl)-N-(3-chloro-2-fluorobenzyl)-5-azaspiro[2.4]heptane-6-carboxamide], the IC50 is greater than 1000 nM.
